From the NIST ThermoML archive (doi:10.1016/j.jct.2003.09.008)
Values joined by “and” are separate entries in the source; they are usually repeats but may differ in a detail not shown here. Identical values can stand only once.

Experiment: mn = molality of the nth substance listed, in mol/kg
Conditions: 298.15 K, 101.33 kPa, Liquid

CC[N+](CC)(CC)CC.[Br-] [tetraethylammonium bromide] + O
Conditions | mass density
m1 = 0.102 | 1000.71 kg/m3
m1 = 0.4023 | 1010.95 kg/m3
m1 = 0.549 | 1015.83 kg/m3
m1 = 1.212 | 1035.35 kg/m3 and 1035.67 kg/m3

CCCC[N+](CCCC)(CCCC)CCCC.[Br-] [tetrabutylammonium bromide] + O
Conditions | mass density [kg/m3]
m1 = 0.0509 | 998.2
m1 = 0.1034 | 999.39
m1 = 0.2709 | 1003.18
m1 = 0.589 | 1010.09
m1 = 0.7318 | 1013.27

C[N+](C)(C)C.[Br-] [tetramethylammonium bromide] + O
Conditions | mass density
m1 = 0.2579 | 1006.85 kg/m3
m1 = 0.258 | 1006.83 kg/m3
m1 = 0.2581 | 1006.9 kg/m3
m1 = 0.532 | 1016.59 kg/m3
m1 = 0.5322 | 1016.42 kg/m3
m1 = 0.5325 | 1016.59 kg/m3
m1 = 0.8105 | 1025.86 kg/m3
m1 = 0.8239 | 1026.24 kg/m3
m1 = 1.134 | 1036.07 kg/m3 and 1035.72 kg/m3
m1 = 1.839 | 1046.9 kg/m3
